# Assays:
# cardiac P2X receptor = assay: Whole-cell voltage clamp of P2 agonist-induced current in WT ventricular myocytes; assay type: cell-based, mouse; conditions: for Inhibition of the 2-meSATP-induced current by P2X receptor antagonists: PPADS 100 μM, NF449 300 nM, Brilliant Blue G 5 μM, ramp −100 to +50 mV
# Source text: Mice displaying the CSQ model of severe cardiomyopathy and heart failure were bred and maintained by methods known in the art. The CSQ transgenic (TG) mice were originally provided by Dr. Larry Jones (Krannert Institute of Cardiology, Indiana University School of Medicine, Indiana), and developed hypertrophy followed by a lethal heart failure phenotype with death near the age of 3 months. Ventricular myocytes were obtained from 3-month old wild type (WT) and CSQ mice of either sex (26 WT, 47 TG) by an enzymatic dissociation procedure. Briefly, the hearts were rapidly excised from mice that had been anesthetized with pentobarbital and treated with 1000 Units of heparin. The aorta was cannulated and the heart perfused in a Langendorff apparatus with oxygenated (95% O2/5% CO2) Ca^2+-free solution (37° C.) for 5 minutes at a rate of 2.5 ml/min. The solution composition was: 126 mM NaCl, 4.4 mM KCl, 1.0 mM MgCl2, 18 mM NaHCO3, 11 mM Glucose, 4 mM HEPES, and 3 mM BDM (2,3-butanedione monoxime), (pH 7.3 adjusted with NaOH). Thereafter, the perfusing solution was changed to that containing 25 μM CaCl2 and liberase (70 μg/ml, Roche Molecular Biochemicals, Inc.) for 8-10 minutes. Cells were sedimented by gravity for 10-15 minutes and the pellet was resuspended in 200 μM Ca^2+-containing Tyrode's solution (containing 3 mM BDM), allowed to settle for 30 minutes at room temperature, and suspended with Tyrode's solution containing: 135 mM NaCl, 5.4 mM KCl, 1.0 mM CaCl2, 1.0 mM MgCl2, 10 mM HEPES and 10 mM dextrose (pH 7.4 adjusted with NaOH). The experiments were carried out at room temperature (22-23° C.) and were completed within 4-6 hours after myocyte isolation.
# The whole cell patch-clamp technique was used for these experiments. Electrodes were prepared from borosilicate glass pipettes (1.2 mm i.d.) with a two step pulling procedure and filled with pipette solution. The pipette was connected via an Ag—AgCl wire to the head stage of an amplifier (List EPC-7, Medical Systems, Greenvale, N.Y.) controlled by a computer and Axon pClamp™ software. For voltage clamp experiments, the electrodes were filled with a solution containing: 135 mM cesium aspartate, 5 mM NaCl, 5 mM Mg2ATP, 10 mM HEPES, and 10 mM EGTA (pH 7.3 adjusted with CsOH) with or without 2 mM GDPβS. Electrode resistances were 2-4 MΩ. As soon as electrical contact was established, the superfusion medium was changed to a modified Tyrode's solution (5.4 mM KCl was omitted and 10 mM CsCl and 5 μM ouabain were added to Tyrode's solution to block K^+ currents and the Na/K pump current, respectively). In quantifying the P2 agonist-induced current, the Tyrode's solution contained the indicated concentration of each agent. In studying the effect of a P2 receptor antagonist, both agonist and antagonist were co-applied at the indicated concentrations. The voltage clamp protocol used was a ramp voltage protocol from −100 mV holding potential to +50 mV. The ramp protocol was applied to cells at 20 s intervals for 1 minute. Three current traces from −100 mV to 50 mV were averaged to construct the I-V relationship.
# rat 5′-ectonucleotidase = molecular target: T1, rat 5′-ectonucleotidase (Rattus norvegicus, UniProt P21588); conditions: cited from earlier work
# T1 sequence (P21588 29-551): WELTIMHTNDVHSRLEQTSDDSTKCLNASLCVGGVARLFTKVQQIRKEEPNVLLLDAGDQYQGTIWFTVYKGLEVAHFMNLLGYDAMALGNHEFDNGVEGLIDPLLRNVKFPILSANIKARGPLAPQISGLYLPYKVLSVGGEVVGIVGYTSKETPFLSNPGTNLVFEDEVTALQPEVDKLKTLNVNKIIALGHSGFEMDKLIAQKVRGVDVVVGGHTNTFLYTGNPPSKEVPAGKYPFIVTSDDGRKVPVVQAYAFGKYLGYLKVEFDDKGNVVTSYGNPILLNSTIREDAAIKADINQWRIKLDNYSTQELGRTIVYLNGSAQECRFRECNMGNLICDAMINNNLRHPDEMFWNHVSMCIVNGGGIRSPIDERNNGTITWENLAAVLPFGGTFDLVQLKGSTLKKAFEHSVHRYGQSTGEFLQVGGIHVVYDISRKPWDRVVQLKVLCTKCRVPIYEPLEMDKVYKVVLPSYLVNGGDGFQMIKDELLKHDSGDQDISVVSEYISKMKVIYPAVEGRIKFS
# [1] = system: Binary P2X4 receptor/CSQ transgenic mice; assay: Lifespan of binary P2X4 receptor/CSQ transgenic mice given drug in drinking water; assay type: in vivo, mouse; conditions: 2 mg/ml in drinking water
# Procedure: Metoprolol, a beta-adrenergic receptor blocker, was dissolved in drinking water at a concentration of 2 mg/ml. Binary P2X4 receptor/CSQ transgenic mice were fed either regular drinking water (n=8 mice) or drinking water containing the metoprolol (n=8 mice). […] Because overexpression of the P2X4 receptor rescues calsequestrin mice in a similar manner to MRS2339, administration of a beta blocker such as metoprolol with MRS2339 or another P2X receptor agonist should synergistically increase lifespan.
# P2X4R Tg myocytes = assay: Cyclic AMP enzymatic immunoassay in P2X4R Tg myocytes; assay type: cell-based, mouse; conditions: 10 minutes, 2-meSATP at 10 μM
# Procedure: Cyclic AMP was determined with an enzymatic immuno-assay kit (EIA, Direct Biotrak EIA kit) according to manufacturer's instructions. The method has been used to estimate cAMP level in dispersed mammalian cardiac ventricular myocytes. In brief, 3-month P2X4R Tg myocytes were isolated and plated in laminin-coated 96 well plate at a density of 1000 cells/well, equilibrated for 1 hour at 37° C., incubated with either phosphate-buffered saline (pH=7.4) or 10 μM 2-meSATP for 10 minutes, and processed for acetylation and subsequent cAMP EIA. cAMP levels were normalized to proteins in each individual well.
compound,measurement,setting,value
"CSc1nc(N)c2ncn([C@@H]3O[C@H](COP(=O)(O)OP(=O)(O)O)[C@@H](O)[C@H]3O)c2n1 [2-meSADP, 2-methylthioADP]",Induction of current,"cardiac P2X receptor; 3 μM, myocytes with a full response to 3 μM 2-meSATP",failed to induce any current
Nc1ncnc2c1ncn2C1C(O)C(O)C2(COP(=O)(O)O)CC12 (stereo not drawn) [(N) methanocarba AMP],Rate of hydrolysis relative to the rate of hydrolysis of AMP,rat 5′-ectonucleotidase,0.14%
CCOc1ccc(Nc2ccc(/C(=C3C=C/C(=[N+](/CC)Cc4cccc(S(=O)(=O)[O-])c4)C=C/3C)c3ccc(N(CC)Cc4cccc(S(=O)(=O)[O-])c4)cc3C)cc2)cc1.[Na+] [Brilliant Blue G],Inhibition of the 2-meSATP-induced current by P2X receptor antagonists,cardiac P2X receptor; 2-meSATP 3 μM,very little inhibitory effect
"CNc1nc(I)nc2c1ncn2[C@H]1C[C@H](OP(=O)(O)O)[C@]2(COP(=O)(O)O)C[C@H]12 [MRS2500, (1′R,2′S,4′S,5′S)-4-(2-iodo-6-methylamino-purin-9-yl)-1-[(phosphate)-methyl]-2-(phosphate)-bicyclo[3.1.0]hexane]",Block of the current evoked by 2-meSATP,"cardiac P2X receptor; MRS2500 1 μM, 2-meSATP 3 μM, WT myocytes",could not block
same,Block of the current evoked by MRS2339,cardiac P2X receptor; data not shown,could not block
COCCc1ccc(OCC(O)CNC(C)C)cc1 (stereo not drawn) [Metoprolol],Median lifespan,[1],491 days
"O=C(Nc1cc(C(=O)Nc2ccc(S(=O)(=O)O)cc2S(=O)(=O)O)cc(C(=O)Nc2ccc(S(=O)(=O)O)cc2S(=O)(=O)O)c1)Nc1cc(C(=O)Nc2ccc(S(=O)(=O)O)cc2S(=O)(=O)O)cc(C(=O)Nc2ccc(S(=O)(=O)O)cc2S(=O)(=O)O)c1 [NF449, 4,4′,4″,4′″-[carbonylbis(imino-5,1,3-benzenetriyl-bis(carbonylimino))]tetrakis-1,3-benzenedisulfonic acid]",Inhibition of the 2-meSATP-induced current by P2X receptor antagonists,cardiac P2X receptor; 2-meSATP 3 μM,very little inhibitory effect
Cc1nc(N=Nc2ccc(S(=O)(=O)O)cc2S(=O)(=O)O)c(COP(=O)(O)O)c(C=O)c1O [PPADS],Inhibition of the 2-meSATP-induced current by P2X receptor antagonists,cardiac P2X receptor; 2-meSATP 3 μM,partially inhibit
CC(C)NCC(O)c1ccc(O)c(O)c1 (stereo not drawn) [isoproterenol],Intracellular cyclic AMP level,P2X4R Tg myocytes,16.6 ± 1.53 pmol/mg

# Source: patent US8410078B2, “Composition and methods to treat cardiac diseases” (University of Connecticut, priority 2006, dated 2013)
